Data taken from patent US12552848B2, “Hydrochloride salts of C5a receptor agonist peptides” (Board of Regents of the University of Nebraska, priority 2017, dated 2026).
Non-standard residues stand in square brackets, D forms with d. No end group written: not given here. NMeL = CN[C@@H](CC(C)C)C(=O)O

Key:
mouse spleen cells = experiment: 24-hour dose response: IL-6 release from mouse spleen cells (ELISA of supernatants); type: cell-based; details: for IL-6: 24 hrs incubation, mouse spleen cells, ± SD
Description: (§1) Salt forms of EP67 (SEQ ID NO:2) generated using the above procedures were incubated at varying concentrations with murine splenocytes over time.
A 24-hour dose response was investigated by incubating mouse spleen cells for 24 hrs with varying concentrations of the EP67 salts. Supernatants were collected and assayed for IL-6 by ELISA.

mice spleen cells = experiment: IL-6 kinetics: IL-6 release over time from mice spleen cells; type: cell-based, mouse; details: for IL-6: 100 μg/mL, mice spleen cells, ± SD
Description: as §1
Next, IL-6 kinetics were investigated by incubating mice spleen cells with 100 μg/mL of each salt form, and the release was examined over time.

| Substance | IL-6 (mouse spleen cells; 0.1 μg/mL activator) [pg/mL] | IL-6 (mouse spleen cells; 1.0 μg/mL activator) [pg/mL] | IL-6 (mouse spleen cells; 10 μg/mL activator) [pg/mL] | IL-6 (mouse spleen cells; 100 μg/mL activator) [pg/mL] | total amount of cytokine (IL-6) released from murine splenocytes, compared with other salt forms (mouse spleen cells; varying concentrations, murine splenocytes) | IL-6 (mice spleen cells; time collected 6 hr) [pg/mL] | IL-6 (mice spleen cells; time collected 24 hr) [pg/mL] | IL-6 (mice spleen cells; time collected 48 hr) [pg/mL] | IL-6 (mice spleen cells; time collected 72 hr) [pg/mL] | kinetics of IL-6 release (time to maximal release), compared with other salt forms (mice spleen cells; murine splenocytes, over time) |
| --- | --- | --- | --- | --- | --- | --- | --- | --- | --- | --- |
| EP67•HCl: HCl salt form of EP67 (SEQ ID NO:2), a response selective C-terminal analog of C5a (YSFKDMP[NMeL][dA]R-OH; also: HCl salt) | 176 ± 3 | 225 ± 1 | 738 ± 5 | 1163 ± 2 | outperformed the acetate (OAc) and, particularly, the TEA salt forms | 47 ± 1 | 1163 ± 2 | 923 ± 6 | 200 ± 11 | maximal IL-6 release quicker than the other two salt forms |
| EP67•OAc^−: acetate salt form of EP67 (SEQ ID NO:2), comparator salt (YSFKDMP[NMeL][dA]R-OH; also: acetate salt) | 188 ± 1 | 325 ± 23 | 225 ± 20 | 780 ± 9 | – | 188 ± 1 | 325 ± 23 | 900 ± 17 | – | – |
| EP67•TFA: TFA salt form of EP67 (SEQ ID NO:2), comparator salt (YSFKDMP[NMeL][dA]R-OH; also: TFA salt) | 178 ± 1 | 185 ± 2 | 308 ± 7 | 803 ± 6 | – | 55 ± 1 | 803 ± 6 | 442 ± 13 | 75 ± 6 | – |
